# According to US9890153B2, “Substituted 1H-pyrrolo [2, 3-b] pyridine and 1H-pyrazolo [3, 4-b] pyridine derivatives as salt inducible kinase 2 (SIK2) inhibitors” (Arrien Pharmaceuticals LLC, priority 2012, dated 2018):
# Entries after “also recorded” stand apart in the source; their conditions may differ. Read-outs that look alike come from different tables or passages of the source.
# How the values were obtained:
# [1] = target: SIK2 (QIK) (SEQ ID NO: 11) (Homo sapiens, UniProt Q9H0K1); assay: SIK2 kinase assay (radiometric, 10 μM ATP); type: biochemical; conditions: read-out: SIK2 (QIK) (SEQ ID NO: 11) kinase inhibition result
# In short: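 Radiometric filter-binding format: enzyme and substrate peptide incubated with or without compound and ATP mix for 20 min at 30 °C. Reaction stopped with phosphoric acid, captured on filter mats and washed with 0.8% phosphoric acid before counting.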
# [2] = target: T1, SIK1 (SEQ ID NO: 10) (Homo sapiens, UniProt P57059); assay: Protein kinase assay, SIK1; type: biochemical; conditions: read-out: SIK1 (SEQ ID NO: 10) kinase inhibition result
# T1 construct: Reaction Biology Corporation (assay service, HotSpot panel)
# In short: (§1)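 Radiometric assay in HEPES pH 7.5 with MgCl2, EGTA, Brij35, BSA, Na3VO4, DTT and 1% DMSO; compound added ~20 min before ATP plus 33P-ATP (10 μM final). IC50 from curve fits.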
# [3] = target: T2, SIK3 (QSK) (SEQ ID NO: 24) (Homo sapiens, UniProt Q9Y2K2); assay: Protein kinase assay, SIK3; type: biochemical; conditions: read-out: SIK3 (QSK) (SEQ ID NO: 24) kinase inhibition result
# T2 construct: Reaction Biology Corporation (assay service, HotSpot panel)
# In short: as §1
# [4] = Rat bioavailability and pharmacokinetics; type: in vivo, male Sprague Dawley rats
# Experimental: The objective of this study was to investigate the bio-availability and pharmacokinetics of a 1H-Pyrrolo[2,3-b]pyridine compound in male Sprague Dawley rats. A total of 6 male rats were used in the study.
# Dose formulations were prepared on the day of doing. Blood samples were collected at 0.083 (only IV), 0.25, 0.5, 1, 2, 4, 8 and 24 h post-dose. At each time point, approximately 0.2 mL of blood was withdrawn from each cannulated rat through jugular vein and transferred to a pre-labeled microfuge tube containing 20 μL of 200 mM K2EDTA permL of blood. Following collection of blood sample, equal volume of heparinized saline was flushed into jugular vein of rat. The blood samples were centrifuged at 5000 g for 5 minutes at 4±2° C. The plasma was separated within 30 min of scheduled time and stored below −60° C. until bio-analysis. The plasma samples were analyzed for 114 using a fit-for purpose liquid chromatographic tandem mass spectrometric detection (LC-MS/MS) method with a lower limit of quantification of 2.21 ng/mL. The pharmacokinetic parameters for compound 114 were calculated using the non-compartmental analysis tool of validated WinNonlin® software (Version 5.2).
# [5] = system: SKOv3 cells; assay: SKOv3 i.p. xenograft in nu/nu mice; type: in vivo; conditions: derivatives 30, 60 mg/kg, taxol 10 mg/kg, FIG. 5a-c
# Experimental: We examined the growth-inhibitory effect of 1H-Pyrrolo[2,3-b]pyridine derivatives in-vivo employing an i.p. xenograft model in which nu/nu mice were inoculated i.p. with sensitive cell line SKOv3 cells. One week after inoculation, mice were randomized into six treatment groups receiving vehicle, 1H-Pyrrolo[2,3-b]pyridine derivatives 30, 60 mg/kg, taxol 10 mg/kg and 1H-Pyrrolo[2,3-b]pyridine plus taxol. Drug treatment was well tolerated except i.p. treatment second group, with no apparent toxicity throughout the study. At the end of an experiment, all mice were sacrificed for tumor volume, weight and each mouse examined and recorded at autopsy.
# [6] = system: SKOV3ip1 tumor cells; assay: SKOv3 induced orthotopic murine model; type: in vivo, athymic female mice; conditions: 20-100 mg/kg i.p. or p.o.
# Experimental: Dose-finding experiments initiated by injecting SKOV3ip1 (SKOV3ip1 cells were collected from cultures using either 0.25% trypsin-EDTA (Life Technologies) on the cell line) tumor cells i.p. (2.5×10^5) into athymic female mice. 19 days after tumor cell orthotopic inoculation and when i.p. tumors were palpable, then the mice randomized into 6 dosage groups: 0 mg (vehicle alone, group 1), 20 and 40 mg/kg (groups 2, 3) received 1H-Pyrrolo[2,3-b]pyridine compound i.p QD for 3 days (M/W/F), 60 and 80 mg/kg (groups 4, 5) received 1H-Pyrrolo[2,3-b]pyridine compound p.o BID for 3 days (M/W/F) and 100 mg/kg group received 1H-Pyrrolo[2,3-b]pyridine compound+Taxol p.o BID for 3 days (M/W/F). […] Additionally, we performed quantitative RT-PCR, Western blot, and immunocytology experiments to identify overexpression of SIK2 in control groups against treatment groups along with SIK2 inhibition of transcription factor CREB via phosphorylation of its cofactor TORC2/CRTC2 as a biological indicator of SIK2 kinase activity. Further characterized the effects of SIK2 kinase inhibition on tumor growth inhibition, examined the tumor nodule formation.
# [7] = male, Sprague Dawley, plasma, IV 5 mg/kg, rat
# [8] = male, Sprague Dawley, plasma, PO 20 mg/kg, rat
# SIK2 (QIK) (SEQ ID NO: 11), sequence (Q9H0K1 whole entry): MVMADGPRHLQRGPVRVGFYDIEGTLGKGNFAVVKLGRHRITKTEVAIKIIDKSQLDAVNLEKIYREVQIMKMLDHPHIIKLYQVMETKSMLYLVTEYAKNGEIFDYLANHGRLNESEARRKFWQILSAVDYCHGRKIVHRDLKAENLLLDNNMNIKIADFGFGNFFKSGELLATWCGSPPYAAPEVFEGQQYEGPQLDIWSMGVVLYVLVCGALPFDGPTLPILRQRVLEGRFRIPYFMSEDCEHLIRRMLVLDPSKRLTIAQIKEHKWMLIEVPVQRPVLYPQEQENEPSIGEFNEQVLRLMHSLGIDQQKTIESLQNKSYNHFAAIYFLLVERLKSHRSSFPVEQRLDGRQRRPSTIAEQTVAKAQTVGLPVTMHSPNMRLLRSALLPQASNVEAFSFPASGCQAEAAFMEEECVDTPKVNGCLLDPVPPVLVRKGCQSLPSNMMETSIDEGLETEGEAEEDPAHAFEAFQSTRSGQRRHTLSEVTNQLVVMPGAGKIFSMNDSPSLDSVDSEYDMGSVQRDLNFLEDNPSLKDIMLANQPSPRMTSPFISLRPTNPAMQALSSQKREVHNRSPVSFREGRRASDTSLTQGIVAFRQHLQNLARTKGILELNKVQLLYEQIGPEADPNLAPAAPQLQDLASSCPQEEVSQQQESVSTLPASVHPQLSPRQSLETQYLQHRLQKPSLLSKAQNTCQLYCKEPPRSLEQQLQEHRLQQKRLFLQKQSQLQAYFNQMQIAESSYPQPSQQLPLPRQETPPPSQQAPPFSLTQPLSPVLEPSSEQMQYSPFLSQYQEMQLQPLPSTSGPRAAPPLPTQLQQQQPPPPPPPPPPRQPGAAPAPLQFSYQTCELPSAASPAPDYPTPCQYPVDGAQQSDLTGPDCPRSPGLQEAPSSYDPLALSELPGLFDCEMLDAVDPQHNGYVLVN
# T1 sequence (P57059 whole entry): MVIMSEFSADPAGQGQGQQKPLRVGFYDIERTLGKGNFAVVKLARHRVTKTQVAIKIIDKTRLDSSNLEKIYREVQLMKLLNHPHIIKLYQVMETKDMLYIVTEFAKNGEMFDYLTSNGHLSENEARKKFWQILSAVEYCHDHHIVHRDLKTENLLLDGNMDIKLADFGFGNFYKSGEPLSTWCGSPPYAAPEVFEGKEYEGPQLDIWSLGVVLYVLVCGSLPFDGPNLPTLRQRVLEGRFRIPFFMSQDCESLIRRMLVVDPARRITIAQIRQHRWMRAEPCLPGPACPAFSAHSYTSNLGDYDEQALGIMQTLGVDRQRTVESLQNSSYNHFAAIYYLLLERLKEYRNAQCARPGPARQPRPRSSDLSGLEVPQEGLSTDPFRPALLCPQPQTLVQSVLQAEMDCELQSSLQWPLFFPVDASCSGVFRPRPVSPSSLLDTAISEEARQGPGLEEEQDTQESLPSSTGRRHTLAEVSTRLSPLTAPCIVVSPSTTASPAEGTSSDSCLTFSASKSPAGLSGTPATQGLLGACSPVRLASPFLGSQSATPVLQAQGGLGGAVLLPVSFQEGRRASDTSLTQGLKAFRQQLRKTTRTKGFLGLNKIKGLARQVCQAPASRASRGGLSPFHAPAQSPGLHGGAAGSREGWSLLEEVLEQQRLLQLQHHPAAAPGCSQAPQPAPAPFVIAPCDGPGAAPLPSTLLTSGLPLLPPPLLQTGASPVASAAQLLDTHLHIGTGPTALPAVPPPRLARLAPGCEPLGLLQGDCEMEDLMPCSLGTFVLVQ
# T2 sequence (Q9Y2K2 whole entry): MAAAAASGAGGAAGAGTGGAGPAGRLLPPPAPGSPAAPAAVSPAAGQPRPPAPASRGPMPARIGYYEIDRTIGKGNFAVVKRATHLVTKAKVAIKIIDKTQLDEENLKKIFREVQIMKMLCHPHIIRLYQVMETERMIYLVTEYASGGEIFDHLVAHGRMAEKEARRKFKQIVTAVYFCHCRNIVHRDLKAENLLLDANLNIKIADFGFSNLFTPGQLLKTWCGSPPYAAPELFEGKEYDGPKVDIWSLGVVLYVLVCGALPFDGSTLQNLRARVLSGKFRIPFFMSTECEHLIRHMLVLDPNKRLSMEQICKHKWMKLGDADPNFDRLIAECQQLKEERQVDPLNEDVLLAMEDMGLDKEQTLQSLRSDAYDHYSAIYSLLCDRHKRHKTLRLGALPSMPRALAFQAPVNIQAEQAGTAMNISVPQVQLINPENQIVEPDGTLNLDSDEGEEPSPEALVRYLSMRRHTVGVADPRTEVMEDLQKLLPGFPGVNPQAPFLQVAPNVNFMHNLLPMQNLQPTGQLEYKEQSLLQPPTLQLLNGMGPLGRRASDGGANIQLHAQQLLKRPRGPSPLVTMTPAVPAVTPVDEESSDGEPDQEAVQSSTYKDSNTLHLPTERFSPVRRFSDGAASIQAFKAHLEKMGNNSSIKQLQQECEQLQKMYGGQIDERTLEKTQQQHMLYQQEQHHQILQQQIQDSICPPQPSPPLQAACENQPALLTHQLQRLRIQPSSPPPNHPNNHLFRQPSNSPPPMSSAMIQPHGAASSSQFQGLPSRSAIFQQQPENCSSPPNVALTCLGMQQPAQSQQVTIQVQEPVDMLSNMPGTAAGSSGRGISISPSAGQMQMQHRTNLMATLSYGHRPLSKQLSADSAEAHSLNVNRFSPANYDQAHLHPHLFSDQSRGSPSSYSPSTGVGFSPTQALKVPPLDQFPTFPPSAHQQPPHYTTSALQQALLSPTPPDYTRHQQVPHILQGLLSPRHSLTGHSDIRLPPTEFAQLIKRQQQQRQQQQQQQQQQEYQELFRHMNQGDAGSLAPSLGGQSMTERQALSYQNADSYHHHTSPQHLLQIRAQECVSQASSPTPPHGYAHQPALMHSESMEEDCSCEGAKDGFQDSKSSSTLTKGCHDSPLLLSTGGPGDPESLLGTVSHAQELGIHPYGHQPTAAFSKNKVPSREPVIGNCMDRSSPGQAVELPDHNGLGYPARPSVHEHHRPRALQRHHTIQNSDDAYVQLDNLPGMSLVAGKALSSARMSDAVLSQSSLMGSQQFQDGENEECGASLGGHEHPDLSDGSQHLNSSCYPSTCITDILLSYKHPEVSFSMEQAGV
IC50 [1] [nM],IC50 [2] [nM],IC50 [3] [nM],"F ([4]; PO 20 mg/kg vs IV 5 mg/kg, from AUCinf and nominal doses) [%]","AUC(0-inf) [4, 7] [ng·h/mL]","AUC(0-t) [4, 7] [ng·h/mL]","clearance [4, 7] [mL/min/kg]","half-life [4, 7] [min]","Cmax ([4]; male, Sprague Dawley, plasma, IV 5 mg/kg, rat, read-out: Cmax (concentration at time zero)) [ng/mL]","Vd ([4]; male, Sprague Dawley, plasma, IV 5 mg/kg, rat, read-out: Vss) [L/kg]","AUC(0-inf) [4, 8] [ng·h/mL]","AUC(0-t) [4, 8] [ng·h/mL]","Cmax ([4]; male, Sprague Dawley, plasma, PO 20 mg/kg, rat, read-out: Cmax) [ng/mL]","Tmax ([4]; male, Sprague Dawley, plasma, PO 20 mg/kg, rat, read-out: Tmax (median)) [min]",SMILES,"antitumor effect (tumor volume, weight, number) [5]",antitumor effect [6]
< 100,> 100,> 1000,15,2620 ± 647,2600 ± 637,33.4 ± 9.57,32.4 ± 3,3850,1.61 ± 0.28,1600 ± 183,1580 ± 179,853,15,"Fc1cccc(-c2c[nH]c3ncc(-c4ccsc4)cc23)c1Cl [Example 114, 3-(2-chloro-3-fluorophenyl)-5-(thiophen-3-yl)-1H-pyrrolo[2,3-b]pyridine]",–,–
–,–,–,–,–,–,–,–,–,–,–,–,–,–,CC(=O)O[C@H]1C(=O)[C@@]2(C)[C@H]([C@H](OC(=O)c3ccccc3)[C@]3(O)C[C@H](OC(=O)[C@H](O)[C@@H](NC(=O)c4ccccc4)c4ccccc4)C(C)=C1C3(C)C)[C@]1(OC(C)=O)CO[C@@H]1C[C@@H]2O [taxol],significant antitumor effects; also recorded: inhibited the abdominal tumor growth and tumor cell dissemination,significant antitumor effects
